Structures can show the parent of a compound that is named as a salt. Where two headings read alike, the source gives them in different places.
Legend:
BIR2 domain of XIAP = BIR2 domain of XIAP (Homo sapiens (Human), UniProt P98170, C202A/C213G); assay: TR-FRET assay for BIR2: inhibition of binding of XIAP BIR2 domain to Peptide A (SMAC-derived peptide)
BIR3 domain of XIAP = BIR3 domain of XIAP (Homo sapiens (Human), UniProt P98170); assay: TR-FRET assay for BIR3: inhibition of binding of XIAP BIR3 domain to Peptide A (SMAC-derived peptide)
[1] = 6x Histidine-tagged BIR2 domain (amino acids 124-240 of XIAP), 10 nM, 20 nM peptide AVPIAQKSEK-(ε-biotin)-OH, TR-FRET
[2] = 6x Histidine-tagged BIR3 domain (amino acids 241-356 of XIAP), 10 nM, 20 nM peptide AVPIAQKSEK-(ε-biotin)-OH, TR-FRET

BIR3 domain of XIAP, sequence (P98170 241-356): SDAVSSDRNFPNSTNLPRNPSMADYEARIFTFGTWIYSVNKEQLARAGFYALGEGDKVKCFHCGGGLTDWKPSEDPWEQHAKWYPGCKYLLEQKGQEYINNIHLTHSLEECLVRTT
BIR2 domain of XIAP, sequence (P98170 124-240 C202A/C213G): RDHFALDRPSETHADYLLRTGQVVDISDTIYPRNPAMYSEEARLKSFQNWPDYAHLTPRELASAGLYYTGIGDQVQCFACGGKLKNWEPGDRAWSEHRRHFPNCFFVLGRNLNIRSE

| IC50 (BIR2 domain of XIAP; [1]) [µM] | IC50 (BIR3 domain of XIAP; [2]) [µM] | Structure (SMILES) | IC50 (BIR2 domain of XIAP) [µM] | IC50 (BIR3 domain of XIAP) [µM] |
| --- | --- | --- | --- | --- |
| 0.012 | > 54.8 | CN[C@@H](C)C(=O)N[C@@H]1C(=O)N(Cc2nn(-c3ccccc3C#N)c3ccccc23)c2ccccc2N(C(=O)c2ccc(C(C)=O)cc2)[C@H]1C [Example 3, (S)-N-{(2S,3S)-1-(4-acetyl-benzoyl)-5-[1-(2-cyano-phenyl)-1H-indazol-3-ylmethyl]-2-methyl-4-oxo-2,3,4,5-tetrahydro-1H-benzo[b][1,4]diazepin-3-yl}-2-methylamino-propionamide hydrochloride] |  |  |
|  |  | CN[C@@H](C)C(=O)N[C@@H]1C(=O)N(Cc2ccnc3ccccc23)c2ccccc2N(C(=O)CS(C)(=O)=O)[C@H]1C [Example 16, (S)-N-((2S,3S)-2-Methyl-1-(2-(methylsulfonyl)acetyl)-4-oxo-5-(quinolin-4-ylmethyl)-2,3,4,5-tetrahydro-1H-benzo[b][1,4]diazepin-3-yl)-2-(methylamino)propanamide hydrochloride] | 0.179 | > 54.8 |
| 0.044 | > 54.8 | CN[C@@H](C)C(=O)N[C@@H]1C(=O)N(Cc2nn(-c3ccccc3C#N)c3ccccc23)c2ccccc2N(C(C)=O)[C@H]1C [Example 19, (S)-N-((2S,3S)-1-Acetyl-5-((1-(2-cyanophenyl)-1H-indazol-3-yl)methyl)-2-methyl-4-oxo-2,3,4,5-tetrahydro-1H-benzo[b][1,4]diazepin-3-yl)-2-(methylamino)propanamide] |  |  |
|  |  | CN[C@@H](C)C(=O)N[C@@H]1C(=O)N(Cc2c(C)cnc3ccccc23)c2ccccc2N(C(C)=O)[C@H]1C [Example 20, (S)-N-((2S,3S)-1-Acetyl-2-methyl-5-((3-methylquinolin-4-yl)methyl)-4-oxo-2,3,4,5-tetrahydro-1H-benzo[b][1,4]diazepin-3-yl)-2-(methylamino)propanamide dihydrochloride] | 0.055 | > 54.8 |
|  |  | CCN[C@@H](C)C(=O)N[C@@H]1C(=O)N(Cc2c(C)ccc3ccccc23)c2ccc(C#N)cc2N(C(=O)CS(C)(=O)=O)[C@H]1C [Example 28, (S)-N-((3S,4S)-7-Cyano-4-methyl-1-((2-methylnaphthalen-1-yl)methyl)-5-(2-(methylsulfonyl)acetyl)-2-oxo-2,3,4,5-tetrahydro-1H-benzo[b][1,4]diazepin-3-yl)-2-(ethylamino)propanamide hydrochloride] | 0.075 | > 54.8 |
|  |  | CN[C@@H](C)C(=O)N[C@@H]1C(=O)N(Cc2cc(=O)oc3cc(Cl)ccc23)c2ccccc2N(C(=O)CS(C)(=O)=O)[C@H]1C [Example 40, (S)-N-((3S,4S)-1-((7-chloro-2-oxo-2H-chromen-4-yl)methyl)-4-methyl-5-(2-(methylsulfonyl)acetyl)-2-oxo-2,3,4,5-tetrahydro-1H-benzo[b][1,4]diazepin-3-yl)-2-(methylamino)propanamide 2,2,2-trifluoroacetate] | 0.354 | > 54.8 |
|  |  | CN[C@@H](C)C(=O)N[C@@H]1C(=O)N(Cc2noc3cc(Br)ccc23)c2ccccc2N(C(=O)CS(C)(=O)=O)[C@H]1C [Example 41, (S)-N-((3S,4S)-1-((6-bromobenzo[d]isoxazol-3-yl)methyl)-4-methyl-5-(2-(methylsulfonyl)acetyl)-2-oxo-2,3,4,5-tetrahydro-1H-benzo[b][1,4]diazepin-3-yl)-2-(methylamino)propanamide 2,2,2-trifluoroacetate] | 0.416 | > 54.8 |
|  |  | CN[C@@H](C)C(=O)N[C@@H]1C(=O)N(Cc2nn(-c3ccccc3C#N)c3ccccc23)c2ccc(C#N)cc2N(C(=O)CS(C)(=O)=O)[C@H]1C [Example 53, (S)-N-((3S,4S)-7-cyano-1-((1-(2-cyanophenyl)-1H-indazol-3-yl)methyl)-4-methyl-5-(2-(methylsulfonyl)acetyl)-2-oxo-2,3,4,5-tetrahydro-1H-benzo[b][1,4]diazepin-3-yl)-2-(methylamino)propanamide 2,2,2-trifluoroacetate] | 0.033 | > 54.8 |

Source: patent publication US9422331B2, “2-oxo-2,3,4,5-tetrahydro-1 H-benzo[B]diazepines and their use in the treatment of cancer” (Hoffmann-La Roche Inc., priority 2012, dated 2016)
